Measured values as given in ChEMBL document CHEMBL1909046, “DrugMatrix in vitro pharmacology data”.

Tests used:
[1] = molecular target: Beta-1 adrenergic receptor (Homo sapiens, UniProt P08588); test: DRUGMATRIX: Adrenergic beta1 radioligand binding (ligand: [125I] Cyanopindolol); assay type: cell membranes, CHO-K1, Membrane; conditions: Not Active = under 50% inhibition at 10 µM
Calcitonin receptor = molecular target: T1, Calcitonin receptor (Homo sapiens, UniProt P30988); assay type: cell membranes, Membrane; conditions: t47d; further: in other assays of this panel Not Active means under 50% inhibition at 10 µM
T1 sequence (P30988 whole entry): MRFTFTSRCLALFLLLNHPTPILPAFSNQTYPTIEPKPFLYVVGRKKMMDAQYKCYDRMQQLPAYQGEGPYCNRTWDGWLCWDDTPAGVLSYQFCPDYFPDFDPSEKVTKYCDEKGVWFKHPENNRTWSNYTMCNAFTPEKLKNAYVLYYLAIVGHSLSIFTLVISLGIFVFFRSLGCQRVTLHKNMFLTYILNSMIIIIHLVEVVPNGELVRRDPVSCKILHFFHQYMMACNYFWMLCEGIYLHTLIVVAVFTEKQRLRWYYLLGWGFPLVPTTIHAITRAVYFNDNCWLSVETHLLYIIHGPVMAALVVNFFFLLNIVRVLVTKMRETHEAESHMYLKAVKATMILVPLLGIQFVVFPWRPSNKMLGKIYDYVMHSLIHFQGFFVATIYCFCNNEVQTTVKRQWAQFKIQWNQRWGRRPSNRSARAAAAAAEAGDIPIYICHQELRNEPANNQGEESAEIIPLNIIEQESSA

[2] = molecular target: T2, 5-hydroxytryptamine receptor 2C (Homo sapiens, UniProt P28335); test: DRUGMATRIX: Serotonin (5-Hydroxytryptamine) 5-HT2C radioligand binding (ligand: [3H] Mesulergine); assay type: cell membranes, CHO-K1, Membrane; conditions: Not Active = under 50% inhibition at 10 µM
T2 sequence (P28335 whole entry): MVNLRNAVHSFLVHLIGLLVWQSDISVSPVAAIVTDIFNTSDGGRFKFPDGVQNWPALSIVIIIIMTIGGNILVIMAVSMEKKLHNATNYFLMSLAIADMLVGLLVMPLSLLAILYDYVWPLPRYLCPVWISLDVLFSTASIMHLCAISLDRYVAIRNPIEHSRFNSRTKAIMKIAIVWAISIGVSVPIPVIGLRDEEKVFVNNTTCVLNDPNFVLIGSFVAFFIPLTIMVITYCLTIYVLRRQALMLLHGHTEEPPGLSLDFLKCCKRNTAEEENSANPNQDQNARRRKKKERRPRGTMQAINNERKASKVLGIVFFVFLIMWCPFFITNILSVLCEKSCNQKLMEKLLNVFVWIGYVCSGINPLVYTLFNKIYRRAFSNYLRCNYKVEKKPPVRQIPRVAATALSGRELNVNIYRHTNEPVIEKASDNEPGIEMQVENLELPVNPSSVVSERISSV

Histamine H2 receptor = Histamine H2 receptor (Homo sapiens, UniProt P25021); assay type: cell membranes, CHO-K1, Membrane; further: in other assays of this panel Not Active means under 50% inhibition at 10 µM
Leukotriene C4 synthase = molecular target: T3, Leukotriene C4 synthase (Cavia porcellus, UniProt A6XA80); test: biochemical; assay type: tissue-based, Lung;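 further: enzyme inhibition assay of leukotriene C4 synthase, using LTA4 as the substrate; in other assays of this panel Not Active means under 50% inhibition at 10 µM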
T3 sequence (A6XA80 whole entry): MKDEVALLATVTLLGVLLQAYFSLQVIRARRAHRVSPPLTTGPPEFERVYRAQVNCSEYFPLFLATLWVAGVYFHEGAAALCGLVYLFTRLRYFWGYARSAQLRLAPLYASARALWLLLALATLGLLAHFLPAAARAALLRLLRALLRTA

Melanocortin receptor 4 = Melanocortin receptor 4 (Homo sapiens, UniProt P32245); assay type: cell membranes, Membrane; conditions: hek293; further: in other assays of this panel Not Active means under 50% inhibition at 10 µM
[3] = molecular target: T4, Muscarinic acetylcholine receptor M4 (Homo sapiens, UniProt P08173); assay type: cell membranes, CHO-K1, Membrane; further: in other assays of this panel Not Active means under 50% inhibition at 10 µM
T4 sequence (P08173 whole entry): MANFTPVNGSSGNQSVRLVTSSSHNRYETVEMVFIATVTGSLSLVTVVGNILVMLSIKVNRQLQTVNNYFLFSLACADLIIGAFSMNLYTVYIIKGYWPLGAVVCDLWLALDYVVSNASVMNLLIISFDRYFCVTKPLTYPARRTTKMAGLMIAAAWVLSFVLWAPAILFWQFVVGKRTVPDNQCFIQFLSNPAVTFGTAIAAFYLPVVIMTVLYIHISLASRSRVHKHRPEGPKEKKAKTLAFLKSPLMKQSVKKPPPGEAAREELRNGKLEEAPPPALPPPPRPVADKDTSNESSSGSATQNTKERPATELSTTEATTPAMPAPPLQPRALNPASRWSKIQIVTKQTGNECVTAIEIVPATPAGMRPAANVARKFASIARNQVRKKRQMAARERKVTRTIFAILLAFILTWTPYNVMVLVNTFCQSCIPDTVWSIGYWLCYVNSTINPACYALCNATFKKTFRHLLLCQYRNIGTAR

[4] = molecular target: T5, Neuropeptide Y receptor type 1 (Homo sapiens, UniProt P25929); assay type: cell membranes, Membrane; conditions: sk-n-mc; further: in other assays of this panel Not Active means under 50% inhibition at 10 µM
T5 sequence (P25929 whole entry): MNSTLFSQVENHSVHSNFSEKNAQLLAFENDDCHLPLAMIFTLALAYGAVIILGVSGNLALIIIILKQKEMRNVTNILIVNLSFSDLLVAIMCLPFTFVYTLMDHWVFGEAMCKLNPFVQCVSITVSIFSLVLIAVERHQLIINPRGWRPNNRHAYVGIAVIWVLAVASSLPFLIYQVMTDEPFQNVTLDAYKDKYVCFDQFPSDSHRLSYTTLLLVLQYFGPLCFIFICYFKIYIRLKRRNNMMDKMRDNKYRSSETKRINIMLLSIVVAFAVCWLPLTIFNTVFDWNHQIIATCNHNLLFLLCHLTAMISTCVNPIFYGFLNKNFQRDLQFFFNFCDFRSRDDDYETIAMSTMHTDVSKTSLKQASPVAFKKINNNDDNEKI

[5] = DRUGMATRIX: Potassium Channel [KATP] radioligand binding (ligand: [3H] Glyburide); assay type: cell membranes, Membrane; conditions: hit-t15; Not Active = under 50% inhibition at 10 µM
[6] = molecular target: Protein kinase C alpha type (Homo sapiens, UniProt P17252); assay type: cell-based; conditions: sf9
Acetylcholinesterase = Acetylcholinesterase (Homo sapiens, UniProt P22303); test: DRUGMATRIX: Acetylcholinesterase enzyme inhibition (substrate: acetylthiocholine); assay type: cell-based, HEK293; conditions: Not Active = under 50% inhibition at 10 µM
Adenosine receptor A2a = Adenosine receptor A2a (Homo sapiens, UniProt P29274); test: DRUGMATRIX: Adenosine A2A radioligand binding (ligand: […]); assay type: cell membranes, HEK293, Membrane; conditions: hek293; Not Active = under 50% inhibition at 10 µM
Mu-type opioid receptor = Mu-type opioid receptor (Homo sapiens, UniProt P35372); test: DRUGMATRIX: Opiate mu (OP3, MOP) radioligand binding (ligand: [3H] Diprenorphine); assay type: cell membranes, CHO-K1, Membrane; conditions: cho-k1; Not Active = under 50% inhibition at 10 µM
Chain of Mu-type opioid receptor (P35372 whole entry): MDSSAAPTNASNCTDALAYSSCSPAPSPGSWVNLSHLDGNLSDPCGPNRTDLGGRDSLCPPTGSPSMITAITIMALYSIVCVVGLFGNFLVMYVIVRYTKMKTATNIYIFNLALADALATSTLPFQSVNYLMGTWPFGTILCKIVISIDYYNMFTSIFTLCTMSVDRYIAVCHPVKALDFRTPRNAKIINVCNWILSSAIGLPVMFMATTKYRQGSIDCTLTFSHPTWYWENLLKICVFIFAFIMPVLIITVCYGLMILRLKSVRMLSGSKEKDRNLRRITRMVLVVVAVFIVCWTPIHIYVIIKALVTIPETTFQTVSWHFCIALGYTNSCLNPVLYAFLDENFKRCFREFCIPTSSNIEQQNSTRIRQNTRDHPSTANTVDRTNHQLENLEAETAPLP

Chain of Adenosine receptor A2a (P29274 whole entry): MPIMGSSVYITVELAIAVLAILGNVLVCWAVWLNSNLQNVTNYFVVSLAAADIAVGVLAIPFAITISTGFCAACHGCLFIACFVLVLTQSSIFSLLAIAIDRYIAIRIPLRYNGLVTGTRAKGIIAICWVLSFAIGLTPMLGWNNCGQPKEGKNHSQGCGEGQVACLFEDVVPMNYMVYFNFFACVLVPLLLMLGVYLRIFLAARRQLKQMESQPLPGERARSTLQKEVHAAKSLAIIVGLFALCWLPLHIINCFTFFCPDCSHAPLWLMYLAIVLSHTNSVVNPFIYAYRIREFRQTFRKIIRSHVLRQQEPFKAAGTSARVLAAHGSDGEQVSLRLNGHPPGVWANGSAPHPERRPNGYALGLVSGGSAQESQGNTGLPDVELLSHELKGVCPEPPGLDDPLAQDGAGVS
Chain of Beta-1 adrenergic receptor (P08588 whole entry): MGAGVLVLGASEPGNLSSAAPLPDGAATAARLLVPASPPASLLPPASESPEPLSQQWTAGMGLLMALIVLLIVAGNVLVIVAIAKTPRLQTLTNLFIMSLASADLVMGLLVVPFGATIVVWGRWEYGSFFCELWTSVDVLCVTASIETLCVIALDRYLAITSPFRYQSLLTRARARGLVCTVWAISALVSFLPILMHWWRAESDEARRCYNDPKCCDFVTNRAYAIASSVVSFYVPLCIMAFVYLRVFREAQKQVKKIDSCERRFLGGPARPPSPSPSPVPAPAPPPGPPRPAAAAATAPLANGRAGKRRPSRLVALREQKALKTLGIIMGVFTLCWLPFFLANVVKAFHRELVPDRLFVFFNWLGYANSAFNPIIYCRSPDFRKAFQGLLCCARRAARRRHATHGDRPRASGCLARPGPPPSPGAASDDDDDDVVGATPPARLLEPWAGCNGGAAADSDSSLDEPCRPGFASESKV
Chain of Acetylcholinesterase (P22303 whole entry): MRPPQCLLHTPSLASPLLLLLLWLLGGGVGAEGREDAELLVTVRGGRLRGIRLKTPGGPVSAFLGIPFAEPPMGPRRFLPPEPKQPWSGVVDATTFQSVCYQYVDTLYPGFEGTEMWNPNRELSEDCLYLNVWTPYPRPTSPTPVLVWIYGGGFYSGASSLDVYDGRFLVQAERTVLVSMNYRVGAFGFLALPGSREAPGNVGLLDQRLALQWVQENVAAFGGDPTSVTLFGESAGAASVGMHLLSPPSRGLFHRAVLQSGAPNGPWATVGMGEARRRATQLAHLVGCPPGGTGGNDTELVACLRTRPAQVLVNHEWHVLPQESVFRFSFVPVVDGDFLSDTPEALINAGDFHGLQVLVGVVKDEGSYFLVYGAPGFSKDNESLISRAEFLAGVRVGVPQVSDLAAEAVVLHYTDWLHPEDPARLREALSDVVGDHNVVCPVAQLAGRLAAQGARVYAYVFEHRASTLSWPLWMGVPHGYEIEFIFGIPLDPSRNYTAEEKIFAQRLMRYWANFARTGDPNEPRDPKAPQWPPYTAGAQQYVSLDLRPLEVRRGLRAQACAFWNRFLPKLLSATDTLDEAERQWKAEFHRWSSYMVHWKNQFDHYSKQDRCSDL
Chain of Melanocortin receptor 4 (P32245 whole entry): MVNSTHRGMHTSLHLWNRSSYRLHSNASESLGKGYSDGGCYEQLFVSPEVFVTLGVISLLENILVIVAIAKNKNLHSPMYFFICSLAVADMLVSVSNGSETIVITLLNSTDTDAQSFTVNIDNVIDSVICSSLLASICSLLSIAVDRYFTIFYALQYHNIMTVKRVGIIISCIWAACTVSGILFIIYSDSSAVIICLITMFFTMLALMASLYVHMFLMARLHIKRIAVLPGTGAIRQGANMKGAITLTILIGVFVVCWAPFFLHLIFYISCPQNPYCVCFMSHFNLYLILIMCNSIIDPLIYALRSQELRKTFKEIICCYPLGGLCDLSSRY
Chain of Histamine H2 receptor (P25021 whole entry): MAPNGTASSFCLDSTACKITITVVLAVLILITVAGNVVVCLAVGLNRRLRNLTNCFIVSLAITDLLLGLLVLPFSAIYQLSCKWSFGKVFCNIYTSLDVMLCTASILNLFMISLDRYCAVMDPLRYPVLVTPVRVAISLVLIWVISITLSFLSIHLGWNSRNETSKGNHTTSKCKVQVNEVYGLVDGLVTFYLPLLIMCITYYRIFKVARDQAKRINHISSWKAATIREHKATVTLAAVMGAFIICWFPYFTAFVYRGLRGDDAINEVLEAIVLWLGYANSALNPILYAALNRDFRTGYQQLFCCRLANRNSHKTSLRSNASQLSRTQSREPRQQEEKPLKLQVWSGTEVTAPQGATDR

Molecule	IC50 ([1]; cho-k1)	IC50 (Calcitonin receptor)	IC50 ([2]; cho-k1)	IC50 (Histamine H2 receptor; cho-k1)	IC50 (Leukotriene C4 synthase)	IC50 (Melanocortin receptor 4)	IC50 ([3]; cho-k1)	IC50 [4]	IC50 [5]	Ki [5]	IC50 [6]	IC50 (Acetylcholinesterase; hek293)	IC50 (Adenosine receptor A2a)	also measured
NNc1ccccc1 [PHENYLHYDRAZINE]	Not Active	Not Active	Not Active	Not Active	Not Active	Not Active	Not Active	Not Active	Not Active	Not Active	Not Active	Not Active	Not Active	
CC(CCc1ccccc1)NCC(O)c1ccc(O)c(C(N)=O)c1 (centres undefined) [LABETALOL]		Not Active	Not Active	Not Active	Not Active	Not Active	Not Active	Not Active	Not Active	Not Active	Not Active	Not Active	Not Active	IC50 (Mu-type opioid receptor): Not Active
IVERMECTIN	Not Active	Not Active	Not Active	Not Active	Not Active	Not Active	Not Active	Not Active	Not Active	Not Active	Not Active	Not Active	Not Active	Ki ([1]; cho-k1): Not Active; Ki (Calcitonin receptor): Not Active; Ki ([2]; cho-k1): Not Active; Ki (Histamine H2 receptor; cho-k1): Not Active; Ki (Leukotriene C4 synthase): Not Active; Ki (Melanocortin receptor 4): Not Active; Ki ([3]; cho-k1): Not Active; Ki [4]: Not Active; Ki [6]: Not Active; Ki (Acetylcholinesterase; hek293): Not Active; Ki (Adenosine receptor A2a): Not Active
O=[N+]([O-])c1cc([As](=O)(O)O)ccc1O [ROXARSONE]	Not Active	Not Active	Not Active	Not Active	Not Active	Not Active	Not Active	Not Active	Not Active	Not Active	Not Active	Not Active	Not Active	Ki ([1]; cho-k1): Not Active; Ki (Calcitonin receptor): Not Active; Ki ([2]; cho-k1): Not Active; Ki (Histamine H2 receptor; cho-k1): Not Active; Ki (Leukotriene C4 synthase): Not Active; Ki (Melanocortin receptor 4): Not Active; Ki ([3]; cho-k1): Not Active; Ki [4]: Not Active; Ki [6]: Not Active; Ki (Acetylcholinesterase; hek293): Not Active; Ki (Adenosine receptor A2a): Not Active
Clc1ccccc1C(c1ccccc1)(c1ccccc1)n1ccnc1 [CLOTRIMAZOLE]		Not Active			Not Active	Not Active		Not Active			Not Active			IC50 ([1]; read-out: IC50): 11.3 µM; Ki ([1]; read-out: Ki): 6.51 µM; IC50 ([2]; read-out: IC50): 14.5 µM; Ki ([2]; read-out: Ki): 7.58 µM; IC50 (Histamine H2 receptor; read-out: IC50): 5.17 µM; Ki (Histamine H2 receptor; read-out: Ki): 5.08 µM; Ki ([3]; read-out: Ki): 1640 nM; IC50 (Acetylcholinesterase; read-out: IC50): 19.4 µM
CC(C)(C)NCC(O)c1ccc(O)c(CO)c1 (centres undefined) [ALBUTEROL]		Not Active	Not Active	Not Active	Not Active	Not Active	Not Active	Not Active	Not Active	Not Active	Not Active	Not Active	Not Active	IC50 (Mu-type opioid receptor): Not Active
COc1cccc(C2(O)CCCCC2CN(C)C)c1 (centres undefined) [TRAMADOL]	Not Active	Not Active	Not Active	Not Active	Not Active	Not Active	Not Active	Not Active			Not Active	Not Active	Not Active	
COc1ccc(C(CN(C)C)C2(O)CCCCC2)cc1 (centres undefined) [VENLAFAXINE]	Not Active	Not Active	Not Active	Not Active	Not Active	Not Active	Not Active	Not Active	Not Active	Not Active	Not Active	Not Active	Not Active	
O=C(CCCN1CCC(O)(c2ccc(Cl)cc2)CC1)c1ccc(F)cc1 [HALOPERIDOL]	Not Active	Not Active			Not Active	Not Active	Not Active	Not Active			Not Active	Not Active	Not Active	
CC(C)(C)NCC(O)c1cc(O)cc(O)c1 (centres undefined) [TERBUTALINE]		Not Active	Not Active	Not Active	Not Active	Not Active	Not Active	Not Active	Not Active	Not Active	Not Active	Not Active	Not Active	IC50 (Mu-type opioid receptor): Not Active
COc1ccc(CCN2CCC(Nc3nc4ccccc4n3Cc3ccc(F)cc3)CC2)cc1 [ASTEMIZOLE]		Not Active			Not Active			Not Active			Not Active	Not Active	Not Active	IC50 ([3]; read-out: IC50): 1860 nM; Ki ([3]; read-out: Ki): 259 nM
